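Abbreviation: GI50, concentration required for 50% inhibition of growth. TGI: concentration producing complete growth inhibition.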
Key:
Test in all cases: growth of human tumour cells (NCI), 384-well format
HOP-92 NSCLC = system: HOP-92 NSCLC
SF-295 CNS = system: SF-295 CNS
MDA-MB-231 breast = system: MDA-MB-231 breast
DU-145 prostate = system: DU-145 prostate
SF-268 CNS = system: SF-268 CNS
SW-620 colon = system: SW-620 colon
M14 melanoma = system: M14 melanoma
786-0 renal = system: 786-0 renal
HOP-62 NSCLC = system: HOP-62 NSCLC
A498 renal = system: A498 renal
SF-539 CNS = system: SF-539 CNS
OVCAR-3 ovarian = system: OVCAR-3 ovarian
SN12C renal = system: SN12C renal
MDA-MB-435 melanoma = system: MDA-MB-435 melanoma
HT29 colon = system: HT29 colon
SK-MEL-28 melanoma = system: SK-MEL-28 melanoma
NCI/ADR-RES ovarian = system: NCI/ADR-RES ovarian
HCT-116 colon = system: HCT-116 colon
MCF7 breast = system: MCF7 breast
SNB-75 CNS = system: SNB-75 CNS
HCC-2998 colon = system: HCC-2998 colon
NCI-H522 lung = system: NCI-H522 lung
COLO 205 colon = system: COLO 205 colon
NCI-H226 lung = system: NCI-H226 lung
UACC-62 melanoma = system: UACC-62 melanoma
NCI-H23 lung = system: NCI-H23 lung
OVCAR-8 ovarian = system: OVCAR-8 ovarian
NCI-H322M lung = system: NCI-H322M lung
IGROV1 ovarian = system: IGROV1 ovarian
K-562 leukemia = system: K-562 leukemia

Structure (SMILES): CN1C(=O)[C@@H](NC(=O)[C@H](CCC(F)(F)F)[C@H](CCC(F)(F)F)C(N)=O)N=C(c2ccccc2)c2ccccc21
- GI50 (HOP-92 NSCLC): 33.9 µM
- TGI (HOP-92 NSCLC): > 100 µM
- GI50 (SF-295 CNS): 99.5 µM
- TGI (SF-295 CNS): > 100 µM
- GI50 (MDA-MB-231 breast): > 93.3 µM
- TGI (MDA-MB-231 breast): > 100 µM
- GI50 (DU-145 prostate): > 100 µM
- TGI (DU-145 prostate): > 100 µM
- GI50 (SF-268 CNS): > 43.9 µM
- TGI (SF-268 CNS): > 90.2 µM
- GI50 (SW-620 colon): > 100 µM
- TGI (SW-620 colon): > 100 µM
- GI50 (M14 melanoma): > 100 µM
- TGI (M14 melanoma): > 100 µM
- GI50 ([…]-0 renal): 87.1 µM
- TGI (786-0 renal): > 100 µM
- GI50 (HOP-62 NSCLC): > 100 µM
- TGI (HOP-62 NSCLC): > 100 µM
- GI50 (A498 renal): 42 µM
- TGI (A498 renal): > 100 µM
- GI50 (SF-539 CNS): > 100 µM
- TGI (SF-539 CNS): > 100 µM
- GI50 (OVCAR-3 ovarian): 55.9 µM
- TGI (OVCAR-3 ovarian): > 100 µM
- GI50 (SN12C renal): > 100 µM
- TGI (SN12C renal): > 100 µM
- GI50 (MDA-MB-435 melanoma): > 100 µM
- TGI (MDA-MB-435 melanoma): > 100 µM
- GI50 (HT29 colon): 62.5 µM
- TGI (HT29 colon): > 100 µM
- GI50 (SK-MEL-28 melanoma): > 83.8 µM
- TGI (SK-MEL-28 melanoma): > 100 µM
- GI50 (NCI/ADR-RES ovarian): > 100 µM
- TGI (NCI/ADR-RES ovarian): > 100 µM
- GI50 (HCT-116 colon): > 92.7 µM
- TGI (HCT-116 colon): > 100 µM
- GI50 (MCF7 breast): 40.9 µM
- TGI (MCF7 breast): > 100 µM
- GI50 (SNB-75 CNS): 17.3 µM
- TGI (SNB-75 CNS): 96.8 µM
- GI50 (HCC-2998 colon): > 100 µM
- TGI (HCC-2998 colon): > 100 µM
- GI50 (NCI-H522 lung): 79.9 µM
- TGI (NCI-H522 lung): > 100 µM
- GI50 (COLO 205 colon): > 79.5 µM
- TGI (COLO 205 colon): > 100 µM
- GI50 (NCI-H226 lung): > 52.7 µM
- TGI (NCI-H226 lung): > 100 µM
- GI50 (UACC-62 melanoma): > 100 µM
- TGI (UACC-62 melanoma): > 100 µM
- GI50 (NCI-H23 lung): > 100 µM
- TGI (NCI-H23 lung): > 100 µM
- GI50 (OVCAR-8 ovarian): > 100 µM
- TGI (OVCAR-8 ovarian): > 100 µM
- GI50 (NCI-H322M lung): > 100 µM
- TGI (NCI-H322M lung): > 100 µM
- GI50 (IGROV1 ovarian): > 100 µM
- TGI (IGROV1 ovarian): > 100 µM
- GI50 (K-562 leukemia): 71.6 µM

Reference: PubChem BioAssay (NCI)
